This note sets out measurements from publication PMC10580383, “Development of Melanocortin 4 Receptor Agonists by Exploiting Animal-Derived Macrocyclic, Disulfide-Rich Peptide Scaffolds” (ACS Pharmacology & Translational Science, 2023).

Assay [1] addresses T1, mouse melanocortin 4 receptor (MC4R) (Mus musculus, UniProt P56450).
T1 construct: expressed in transfected cells; host or cells: HEK293 / HEK293T, transient transfection
Nature of the assay: cAMP second messenger quantification assay (Cisbio HTRF cAMP Gs kit). The assay is classed as cell-based. The protocol:
Figure 3 Functional cAMP assay of synthesized peptide analogues targeting MC4R. The accumulation of adenylyl cyclase-catalyzed cAMP of (A) tachylplesin-1-like peptides (Ta1LPs, green), (B) protegrin-4-like peptides ([…], pink), (C) arenicin-3-like peptides (Ar3LPs, orange), and (D) gomesin-like peptides (GoLPs, blue) was measured in HEK293 cells transiently expressing mouse melanocortin 4 receptor (MC4R). […] Data are from three independent experiments and are shown as mean ± SEM.
Assays were performed on cells transiently expressing mouse MC4R-EGFP. BamHI and SacI restriction sites were used to clone mouse MC4R N-terminally into a pEGFP-N1 vector. Peptide ligands were assayed for […] in a 384-well format and triplicate according to the Cisbio protocol. Briefly, 5 μL containing 10,000 cells per well was incubated with 5 μL of peptide solutions prepared 2× in 1× stimulation buffer. Following an incubation of peptide ligands at 37 °C for 30 min, d2-labeled cAMP and cryptate-labeled antibody (5 μL of each) were added to the mixture and further incubated for at least 1 h at room temperature. Subsequently, cAMP levels were quantified on a Flexstation 3 (Molecular Devices, San Jose, USA) using homogeneous time-resolved fluorescence resonance energy transfer and the ratio 665/620 nm. Samples were measured in technical triplicates.
Data analysis was performed with GraphPad Prism (GraphPad Software, San Diego). The potency (EC50) and maximum efficacy (Emax) values of peptide ligands were derived from functional data fitted to three- or four-parameter nonlinear regression curves constrained to a bottom of zero.

The subject of the next assay is mouse MC4R-EGFP. Nature of the assay: kinetic BRET β-arrestin-2 recruitment assay (MC4R-EGFP / β-arrestin-2-nanoluciferase). The assay is classed as cell-based. Conditions: ligand 10 μM; HEK293 cells, MC4R-EGFP and β-arrestin-2-NLuc; mean ligand-induced BRET from 312 to 2433 s, NDP-α-MSH set as 100; three independent experiments. As to the method: Considering the physiological relevance of β-arrestins and their critical role in orchestrating MC4R signaling, we measured β-arrestin-2 recruitment in a kinetic bioluminescence resonance energy transfer (BRET) assay. We screened at a ligand concentration of 10 μM in HEK293 cells transiently expressing MC4R coupled to EGFP, and β-arrestin-2 fused to nanoluciferase. […] By contrast, Pr4LP1, Ar3LP1, Ar3LP2, and GoLP1 recruited β-arrestin-2 with greater efficiencies (>130%) than NDP-α-MSH (Figures 4 and S5B,C).
Figure 4 β-Arrestin-2 recruitment of designed MC4R peptide analogues. BRET assay was used to measure the transient interaction of MC4R-EGFP with β-arrestin-2-nanoluciferase (NLuc) in HEK293 cells over time following cell treatment with 10 μM of tachyplesin-1-like peptides (Ta1LPs, green), protegrin-4-like peptides (Pr4LPs, pink), arenicin-3-like peptides (Ar3LPs, orange), and gomesin-like peptides (GoLPs, blue). Relative BRET quantification was determined by calculating the mean value of ligand-induced BRET for each peptide ligand from 312 to 2433 s which was then divided by the mean value of ligand-induced BRET of NDP-α-MSH set as 100. Data are shown as mean ± SEM from three independent experiments.
BRET assay was performed as previously described.[32] Briefly, β-arrestin-2-nano luciferase and mouse MC4R-EGFP were cotransfected in a 1:10 ratio. 16 h post-transfection, 50,000 cells in 100 μL of phenol red-free DMEM with 10% FBS per well were transferred into white clear bottom 96-well plates and incubated overnight. On the day of the assay, cells were incubated for 1 h at 37 °C in phenol red- and serum-free DMEM. Furimazine (diluted 1:50) and peptide ligands (4×) were prepared in Hank’s balanced salt solution (HBSS), respectively. Prior to establishing the baseline and measuring kinetic BRET, furimazine was incubated for 5 min at 37 °C. The ability of peptide ligands to induce β-arrestin-2 recruitment was assessed by measuring light emissions for EGFP (510 nm) and nanoluciferase (460 nm) over 35 min using Flexstation 3 (Molecular Devices, San Jose, USA). The BRET ratio was calculated as emission EGFP (510 nm)/emission nanoluciferase (460 nm). The ligand-induced BRET was calculated by subtracting […].
In general terms: BRET reads energy transfer from a luciferase to a nearby fluorophore.

Assay [2] concerns the target mouse melanocortin 4 receptor fused to EGFP (mouse) (UniProt P56450).
Where [3] appears, read: HEK293, read-out: efficacy cAMP Emax ± SD.

Where two headings read alike, the source gives them in different places. Where a SMILES comes first, the peptide text is derived from it. Bridges are numbered along the chain shown (N, C = ends). Where no end group is shown, it is not given here. [ ]: non-standard residue; d: D form. pGlu = O=C1CC[C@@H](C(=O)O)N1

Sequence of mouse melanocortin 4 receptor fused to EGFP (mouse) (P56450 whole entry, the tested form may be a part): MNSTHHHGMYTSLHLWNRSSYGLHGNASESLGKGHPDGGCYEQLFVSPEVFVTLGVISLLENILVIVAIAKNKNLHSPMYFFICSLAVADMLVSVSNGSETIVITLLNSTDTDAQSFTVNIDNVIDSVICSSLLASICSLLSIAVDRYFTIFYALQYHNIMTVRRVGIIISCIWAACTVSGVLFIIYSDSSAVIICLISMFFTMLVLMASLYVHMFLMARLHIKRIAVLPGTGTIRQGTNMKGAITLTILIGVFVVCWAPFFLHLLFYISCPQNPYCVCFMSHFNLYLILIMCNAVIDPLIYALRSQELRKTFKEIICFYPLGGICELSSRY
T1 sequence (P56450 whole entry): as the sequence (P56450 whole entry, the tested form may be a part) above

As to `CC(C)C[C@@H]1NC(=O)[C@H](CCCNC(=N)N)NC(=O)[C@H](CCCNC(=N)N)NC(=O)[C@@H](NC(=O)[C@@H]2CCC(=O)N2)CSSC[C@@H](C(=O)N[C@@H](CCCNC(=N)N)C(=O)NCC(=O)N[C@@H](CCCNC(=N)N)C(N)=O)NC(=O)[C@H](Cc2ccc(O)cc2)NC(=O)[C@H]([C@@H](C)O)NC(=O)[C@H](C(C)C)NC(=O)[C@@H]2CSSC[C@H](NC1=O)C(=O)N[C@@H](Cc1c[nH]cn1)C(=O)N[C@H](Cc1ccccc1)C(=O)N[C@@H](Cc1c[nH]cn1)C(=O)N[C@@H](Cc1c[nH]c3ccccc13)C(=O)N2` [GoLP2] ([pGlu]CRRLCH[dF]HWCVTYCRGR-NH2; disulfide 2-15, 6-11), in assay [1], the EC50 (usually the concentration needed to bring the measured effect to its halfway point) was determined as 158 nM. Moreover, in assay [1] (setting [3]), the Emax – broadly, the maximal effect, on the per cent scale that the assay sets – is 116 ± 11%. In addition, the “BRET efficacy of β-arrestin-2 recruitment relative to NDP-α-MSH” value in the assay on mouse MC4R-EGFP is given as “less than 60%”.
On to `CC(C)C[C@@H]1NC(=O)[C@H](CCCNC(=N)N)NC(=O)[C@H](CCCNC(=N)N)NC(=O)[C@@H](NC(=O)[C@@H]2CCC(=O)N2)CSSC[C@@H](C(=O)N[C@@H](CCCNC(=N)N)C(=O)NCC(=O)N[C@@H](CCCNC(=N)N)C(N)=O)NC(=O)[C@H](Cc2ccc(O)cc2)NC(=O)[C@H]([C@@H](C)O)NC(=O)[C@H](C(C)C)NC(=O)[C@@H]2CSSC[C@H](NC1=O)C(=O)N1CCC[C@H]1C(=O)N[C@@H](Cc1c[nH]cn1)C(=O)N[C@H](Cc1ccccc1)C(=O)N[C@@H](Cc1c[nH]cn1)C(=O)N[C@@H](Cc1c[nH]c3ccccc13)C(=O)N2` [GoLP1] ([pGlu]CRRLCPH[dF]HWCVTYCRGR-NH2; disulfide 2-16, 6-12), for which a half-maximal effect in assay [1] (EC50) was put at 26 nM. Moreover, the Emax in assay [1] (setting [3]) was 99 ± 3%. In addition, in the assay with mouse MC4R-EGFP, the “BRET efficacy of β-arrestin-2 recruitment relative to NDP-α-MSH” value is listed as > 130%.
For `CC(C)[C@@H]1NC(=O)[C@H](CCCNC(=N)N)NC(=O)[C@H](Cc2c[nH]c3ccccc23)NC(=O)[C@H](Cc2c[nH]cn2)NC(=O)[C@@H](Cc2ccccc2)NC(=O)[C@H](Cc2c[nH]cn2)NC(=O)[C@H](Cc2ccc(O)cc2)NC(=O)[C@H](C(C)C)NC(=O)[C@@H]2CSSC[C@H](NC1=O)C(=O)N[C@@H](Cc1ccc(O)cc1)C(=O)N[C@@H](CCCNC(=N)N)C(=O)N[C@@H](CCCNC(=N)N)C(=O)N[C@H](C(=O)N[C@@H](CC(N)=O)C(N)=O)CSSC[C@H](NC(=O)[C@H](Cc1ccccc1)NC(=O)CN)C(=O)N[C@@H](Cc1c[nH]c3ccccc13)C(=O)N[C@@H](Cc1ccc(O)cc1)C(=O)N[C@@H](C(C)C)C(=O)N2` [Ar3LP4] (H-GFCWYVCVYH[dF]HWRVCYRRCN-NH2; disulfide 3-20, 7-16), in that order: 794 nM, 106 ± 14% and “less than 60%”.
In turn, `CC(C)[C@@H]1NC(=O)[C@H](Cc2c[nH]c3ccccc23)NC(=O)[C@H](Cc2c[nH]cn2)NC(=O)[C@@H](Cc2ccccc2)NC(=O)[C@H](Cc2c[nH]cn2)NC(=O)[C@@H]2CCCN2C(=O)[C@H](Cc2ccc(O)cc2)NC(=O)[C@H](C(C)C)NC(=O)[C@@H]2CSSC[C@H](NC1=O)C(=O)N[C@@H](Cc1ccc(O)cc1)C(=O)N[C@@H](CCCNC(=N)N)C(=O)N[C@@H](CCCNC(=N)N)C(=O)N[C@H](C(=O)N[C@@H](CC(N)=O)C(N)=O)CSSC[C@H](NC(=O)[C@H](Cc1ccccc1)NC(=O)CN)C(=O)N[C@@H](Cc1c[nH]c3ccccc13)C(=O)N[C@@H](Cc1ccc(O)cc1)C(=O)N[C@@H](C(C)C)C(=O)N2` [Ar3LP2] (H-GFCWYVCVYPH[dF]HWVCYRRCN-NH2; disulfide 3-20, 7-16) displayed a half-maximal effective concentration (EC50) in assay [1] of 20 nM. Also, the Emax in assay [1] (HEK293; read-out: efficacy cAMP Emax ± SD) stood at 95 ± 10%. Besides, the “BRET efficacy of β-arrestin-2 recruitment relative to NDP-α-MSH” value in the assay on mouse MC4R-EGFP was > 130%.

B1: protegrin-4-like peptide 2 (peptide)
peptide: RGGRLCYCH[dF]HWCFCVGR-NH2
modifications: disulfide 8-13, 6-15; N-terminus assumed
SMILES: CC(C)C[C@H](NC(=O)[C@H](CCCNC(=N)N)NC(=O)CNC(=O)CNC(=O)[C@@H](N)CCCNC(=N)N)C(=O)N[C@H]1CSSC[C@@H](C(=O)N[C@H](C(=O)NCC(=O)N[C@@H](CCCNC(=N)N)C(N)=O)C(C)C)NC(=O)[C@H](Cc2ccccc2)NC(=O)[C@@H]2CSSC[C@H](NC(=O)[C@H](Cc3ccc(O)cc3)NC1=O)C(=O)N[C@@H](Cc1c[nH]cn1)C(=O)N[C@H](Cc1ccccc1)C(=O)N[C@@H](Cc1c[nH]cn1)C(=O)N[C@@H](Cc1c[nH]c3ccccc13)C(=O)N2
In assay [2], B1 showed a cAMP accumulation (Cisbio HTRF) in HEK293 cells transiently expressing mouse MC4R-EGFP: EC50 of 150 nM and a cAMP accumulation (Cisbio HTRF) in HEK293 cells transiently expressing mouse MC4R-EGFP: Emax (normalised to NDP-α-MSH) of 97%.

B2: tachyplesin-1-like peptide 3 (peptide)
peptide: KWCFRVCH[dF]RWCYRRCR-NH2
modifications: disulfide 7-12, 3-16; N-terminus assumed
SMILES: CC(C)[C@@H]1NC(=O)[C@H](CCCNC(=N)N)NC(=O)[C@H](Cc2ccccc2)NC(=O)[C@@H](NC(=O)[C@H](Cc2c[nH]c3ccccc23)NC(=O)[C@@H](N)CCCCN)CSSC[C@@H](C(=O)N[C@@H](CCCNC(=N)N)C(N)=O)NC(=O)[C@H](CCCNC(=N)N)NC(=O)[C@H](CCCNC(=N)N)NC(=O)[C@H](Cc2ccc(O)cc2)NC(=O)[C@@H]2CSSC[C@H](NC1=O)C(=O)N[C@@H](Cc1c[nH]cn1)C(=O)N[C@H](Cc1ccccc1)C(=O)N[C@@H](CCCNC(=N)N)C(=O)N[C@@H](Cc1c[nH]c3ccccc13)C(=O)N2
Consider B2, for which, in assay [2], the cAMP accumulation (Cisbio HTRF) in HEK293 cells transiently expressing mouse MC4R-EGFP: EC50 was found to be 17 nM and the cAMP accumulation (Cisbio HTRF) in HEK293 cells transiently expressing mouse MC4R-EGFP: Emax (normalised to NDP-α-MSH) worked out at 98%.

B3: protegrin-4-like peptide 3 (peptide)
peptide: RGGRLCYCH[dF]RWCFCVGR-NH2
modifications: disulfide 8-13, 6-15; N-terminus assumed
SMILES: CC(C)C[C@H](NC(=O)[C@H](CCCNC(=N)N)NC(=O)CNC(=O)CNC(=O)[C@@H](N)CCCNC(=N)N)C(=O)N[C@H]1CSSC[C@@H](C(=O)N[C@H](C(=O)NCC(=O)N[C@@H](CCCNC(=N)N)C(N)=O)C(C)C)NC(=O)[C@H](Cc2ccccc2)NC(=O)[C@@H]2CSSC[C@H](NC(=O)[C@H](Cc3ccc(O)cc3)NC1=O)C(=O)N[C@@H](Cc1c[nH]cn1)C(=O)N[C@H](Cc1ccccc1)C(=O)N[C@@H](CCCNC(=N)N)C(=O)N[C@@H](Cc1c[nH]c3ccccc13)C(=O)N2
As for B3, in assay [2], the cAMP accumulation (Cisbio HTRF) in HEK293 cells transiently expressing mouse MC4R-EGFP: EC50 was found to be 210 nM and the cAMP accumulation (Cisbio HTRF) in HEK293 cells transiently expressing mouse MC4R-EGFP: Emax (normalised to NDP-α-MSH) amounted to 99%.

B4: tachyplesin-1-like peptide 2 (peptide)
peptide: KWCFRVCH[dF]HWCYRRCR-NH2
modifications: disulfide 7-12, 3-16; N-terminus assumed
SMILES: CC(C)[C@@H]1NC(=O)[C@H](CCCNC(=N)N)NC(=O)[C@H](Cc2ccccc2)NC(=O)[C@@H](NC(=O)[C@H](Cc2c[nH]c3ccccc23)NC(=O)[C@@H](N)CCCCN)CSSC[C@@H](C(=O)N[C@@H](CCCNC(=N)N)C(N)=O)NC(=O)[C@H](CCCNC(=N)N)NC(=O)[C@H](CCCNC(=N)N)NC(=O)[C@H](Cc2ccc(O)cc2)NC(=O)[C@@H]2CSSC[C@H](NC1=O)C(=O)N[C@@H](Cc1c[nH]cn1)C(=O)N[C@H](Cc1ccccc1)C(=O)N[C@@H](Cc1c[nH]cn1)C(=O)N[C@@H](Cc1c[nH]c3ccccc13)C(=O)N2
In assay [2], B4 returned a cAMP accumulation (Cisbio HTRF) in HEK293 cells transiently expressing mouse MC4R-EGFP: EC50 of 48 nM and a cAMP accumulation (Cisbio HTRF) in HEK293 cells transiently expressing mouse MC4R-EGFP: Emax (normalised to NDP-α-MSH) of 97%.
